Results: patent US20170143733A1, “COMPOUNDS AND METHODS FOR SKIN REPAIR” (Allergan, Inc., priority 2012, published 2017)

Tests used:
EP2 [1] = biological target: T1, EP2 (Homo sapiens, UniProt P43116); assay: EP2 cAMP functional assay; assay type: cell-based
EP2 [2] = biological target: T1, EP2; assay: EP2 binding assay (Ki)
EP4 [3] = biological target: T2, EP4 (Homo sapiens, UniProt P35408); assay: EP4 cAMP functional assay; assay type: cell-based
EP4 [4] = biological target: T2, EP4; assay: EP4 binding assay (Ki)
incisional wounds = assay: Incisional skin wound model and assessment; assay type: in vivo, Sprague-Dawley rats; conditions: rats, Day 7, topical 0.004% twice daily for 5 days, drug-treated, scale of 0 to 6, higher = severer scar
Excerpt: Sprague-Dawley rats at 180-200 gram were anesthetized with isoflourane. After shaving, 2-cm long incisions were made on the left and right side of the back, reaching the deep fascia on the back skin of rats under sterile conditions. Incisional wounds were immediately closed with 4.0 sutures, and then topically treated with a vehicle or test drugs at 0.004% twice daily for 5 days. The vehicle used here contains ethanol 30%, propylene glycol 12%, dipropylene glycol 5%, benzyl alcohol 5%, glycerol 3% and normal saline 45%. Wounds were photographed on day 7. All photos were coded and scored by lay people. Evaluation of wound sites was based on scar width, palpability (elevation) of wound areas, and general progress in healing, using a scale of 0 to 6; the severer a scar, the higher the score. Each scar was divided into 4 regions, separated by suture sites; each quarter was scored independently; the mean of the 4 part scores was recorded as the overall scar score of each incision site.

T1 sequence (P43116 whole entry): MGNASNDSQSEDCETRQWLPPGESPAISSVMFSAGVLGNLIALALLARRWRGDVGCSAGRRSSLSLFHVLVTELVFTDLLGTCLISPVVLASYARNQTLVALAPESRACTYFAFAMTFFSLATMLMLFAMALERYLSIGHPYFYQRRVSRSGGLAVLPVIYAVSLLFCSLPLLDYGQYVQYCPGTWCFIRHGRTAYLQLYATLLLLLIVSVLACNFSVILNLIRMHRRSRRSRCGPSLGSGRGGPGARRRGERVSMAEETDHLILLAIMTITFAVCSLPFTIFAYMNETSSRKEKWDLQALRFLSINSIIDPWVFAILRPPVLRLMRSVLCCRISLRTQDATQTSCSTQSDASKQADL
T2 sequence (P35408 whole entry): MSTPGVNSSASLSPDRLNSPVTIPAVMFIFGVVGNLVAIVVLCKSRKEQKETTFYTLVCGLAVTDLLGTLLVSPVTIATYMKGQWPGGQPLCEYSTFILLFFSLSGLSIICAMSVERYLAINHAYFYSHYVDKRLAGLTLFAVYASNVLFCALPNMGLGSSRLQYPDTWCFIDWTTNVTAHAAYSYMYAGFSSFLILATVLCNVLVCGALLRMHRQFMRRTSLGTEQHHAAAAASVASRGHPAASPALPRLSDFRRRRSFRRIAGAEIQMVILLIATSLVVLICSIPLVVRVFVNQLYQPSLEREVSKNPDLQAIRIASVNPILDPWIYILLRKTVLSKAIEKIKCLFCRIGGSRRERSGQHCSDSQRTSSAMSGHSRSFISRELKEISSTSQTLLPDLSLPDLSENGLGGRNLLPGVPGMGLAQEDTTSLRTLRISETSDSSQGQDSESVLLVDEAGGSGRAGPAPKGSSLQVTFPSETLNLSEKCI

SMILES	EC50 (EP2 [1])	IC50 (EP2 [2])	EC50 (EP4 [3])	IC50 (EP4 [4])	Scar Scores (incisional wounds)
O=C(O)CCCCCC[C@H]1C(=S)CCC[C@@H]1CCC(O)Cc1ccccc1 (stereo partly drawn) [Compound 1]	> 10000 nM	> 10000 nM	0.9 nM	81 nM	
CC1(C)C(=O)[C@H](C/C=C\CCCC(=O)O)[C@@H](/C=C/[C@H](O)CCc2sc3ccccc3c2Cl)[C@@H]1O [Compound 2]	> 10000 nM		0.3 nM	7 nM	0.60 ± 0.1
CCCCC[C@H](O)c1ccc(N2C(=O)CC[C@@H]2CCCc2ccc(C(=O)O)s2)cc1 [Compound 3]		21 nM	> 10000 nM		
O=C(O)c1ccc(CCCN2C(=O)CC[C@@H]2CC[C@@H](O)Cc2cccc(C(F)(F)F)c2)s1 [Compound 4]	71 nM	4650 nM			0.76 ± 0.07
O=C(O)c1ccc(CC2Sc3c(Cl)cccc3N(Cc3ccccc3C(F)(F)F)C2=O)cc1 (stereo not drawn) [Compound 5]	1.9 nM	1 nM	4 nM	0.3 nM	0.56 ± 0.07
